Literature values in patent US6346530B1, “Process for the preparation of a bioavailable oral dosage form of cefuroxime axetil” (Ranbaxy Laboratories Limited, priority 1999, dated 2002).

Conditions: background, result in words

Row | SMILES | Bioavailability upon oral administration
1 | CO/N=C(\C(=O)N[C@@H]1C(=O)N2C(C(=O)OC(C)OC(C)=O)=C(COC(N)=O)CS[C@H]12)c1ccco1 (some centres unmarked) [Crystalline cefuroxime axetil, cefuroxime axetil] | does not exhibit adequate bioavailability
2 | CO/N=C(\C(=O)N[C@@H]1C(=O)N2C(C(=O)OC(C)OC(C)=O)=C(COC(N)=O)CS[C@H]12)c1ccco1 (some centres unmarked) [amorphous form of cefuroxime axetil, cefuroxime axetil] | high bioavailability
